Laboratory results taken from patent publication US6753345B2, “7-hexanolytaxol and methods for preparing the same” (Hauser, Inc., priority 1998, dated 2004).
pIC50: −log10 of the molar value. Converted amounts (≈) assume the structure as drawn. Read-outs that look alike come from different tables or passages of the source.

Key:
26 cell lines = assay: 26 cell line growth inhibition screen, sulforhodamine stain; type: cell-based; conditions: 48 h
CCRF-CEM cells = assay: G2/M arrest; type: cell-based; conditions: minimum concentration that results in 60% of CCRF-CEM cells to arrest in G2-M
HL-60(TB) = assay: cells; conditions: Homo sapiens, HL-60, 48 h
LOX-IMVI = assay: cells; conditions: Homo sapiens, 48 h, read-out: Log10 LC50 (converted)
CCRF-CEM = assay: SRB cytotoxicity screening assay (Leukemia); conditions: for Log10 TGI: PG=0
IGR-OV1 = assay: SRB cytotoxicity screening assay (Ovarian)
OVCAR-3 = assay: SRB cytotoxicity screening assay (Ovarian)
OVCAR-4 = assay: SRB cytotoxicity screening assay (Ovarian)
OVCAR-6 = assay: SRB cytotoxicity screening assay (Ovarian)
UACC-62 = assay: SRB cytotoxicity screening assay (Melanoma)
SF-539 = assay: SRB cytotoxicity screening assay (CNS Cancer)
U251 = assay: SRB cytotoxicity screening assay (CNS Cancer)
COLO 205 = assay: SRB cytotoxicity screening assay (Colon Cancer)
786-0 = assay: SRB cytotoxicity screening assay (Renal Cancer)
A498 = assay: SRB cytotoxicity screening assay (Renal Cancer)
SN12C = assay: SRB cytotoxicity screening assay (Renal Cancer)
UO-31 = assay: SRB cytotoxicity screening assay (Renal Cancer)
MDA-MB-231/ATCC = assay: SRB cytotoxicity screening assay (Breast Cancer)
PC-3 = assay: SRB cytotoxicity screening assay (Prostate Cancer)
DU-145 = assay: SRB cytotoxicity screening assay (Prostate Cancer)
HOP-62 = assay: SRB cytotoxicity screening assay (Non-Small Cell Lung Cancer)
NCI-H226 = assay: as above
NCI-H460 = assay: as above
NCI-H522 = assay: as above
[1] = system: cell line panel (60 lines, nine disease-related subpanels); assay: SRB cytotoxicity screening assay, whole cell line panel (mean values)
[2] = mean value over the cell line panel

For `CCCCCC(=O)O[C@H]1C[C@H]2OC[C@@]2(OC(C)=O)[C@H]2[C@H](OC(=O)c3ccccc3)[C@]3(O)C[C@H](OC(=O)[C@H](O)[C@@H](NC(=O)c4ccccc4)c4ccccc4)C(C)=C([C@@H](OC(C)=O)C(=O)[C@]12C)C3(C)C` [7-hexanoyltaxol], which IC50 (26 cell lines; read-out: Mean IC50 (26 cell line Mean Growth inhibition IC50 value)) is on record?
Its IC50 is 8 ng/mL (≈ 8.4 nM).

And the IC50 (26 cell lines; read-out: Min IC50 (lowest observed IC50 value in 26 cell line screen))?
Its IC50 is 1 ng/mL (≈ 1.05 nM).

And the “G2/M arrest MED” value (CCRF-CEM cells)?
The value was 0.10 µg/mL.

And the GI50 (HL-60(TB); read-out: Log10 GI50 (converted))?
The GI50 was < 10 nM.

What about the CC50 (HL-60(TB); read-out: Log10 LC50 (converted)) of the same compound?
The CC50 was > 100 µM.

What about the CC50 (LOX-IMVI) of the same compound?
The CC50 was 57.5 µM.

And the “Log10 TGI” value (CCRF-CEM; CCRF-CEM (Leukemia), 48 hour incubation)?
The value was −6.1 molar.

What about the “Log10 TGI” value (CCRF-CEM; CCRF-CEM (Leukemia), 48 hour incubation, listed as 7-Hexanoyltaxol) of the same compound?
Its value is <−8.00 molar.

What about the “Log10 LC50” value (CCRF-CEM; CCRF-CEM (Leukemia), PG=−50, 48 hour incubation) of the same compound?
Its value is >−4.00 molar.

What about the GI50 (CCRF-CEM; Homo sapiens, CCRF-CEM, 48 h, read-out: Log10 GI50 (converted)) of the same compound?
Its GI50 is < 10 nM.

What about the CC50 (CCRF-CEM; Homo sapiens, CCRF-CEM, 48 h, read-out: Log10 LC50 (converted)) of the same compound?
The CC50 was > 100 µM.

What about the pIC50 (CCRF-CEM; Homo sapiens, CCRF-CEM, read-out: concentration necessary to achieve primary growth inhibition (percentage growth +50)) of the same compound?
Its pIC50 is ~7.00.

What about the GI50 (IGR-OV1; Homo sapiens, IGROV-1, 48 h, read-out: Log10 GI50 (converted)) of the same compound?
The GI50 was < 10 nM.

And the CC50 (IGR-OV1; Homo sapiens, IGROV-1, 48 h, read-out: Log10 LC50 (converted))?
Its CC50 is > 100 µM.

And the “Log10 TGI” value (IGR-OV1; IGR-OV1 (Ovarian), PG=0, 48 hour incubation)?
Its value is −4.52 molar.

What about the GI50 (OVCAR-3; Homo sapiens, OVCAR-3, 48 h, read-out: Log10 GI50 (converted)) of the same compound?
The GI50 was < 10 nM.

What about the CC50 (OVCAR-3; Homo sapiens, OVCAR-3, 48 h, read-out: Log10 LC50 (converted)) of the same compound?
Its CC50 is 20.9 µM.

What about the “Log10 TGI” value (OVCAR-3; OVCAR-3 (Ovarian), PG=0, 48 hour incubation) of the same compound?
Its value is −7.65 molar.

And the GI50 (OVCAR-4; Homo sapiens, OVCAR-4, 48 h, read-out: Log10 GI50 (converted))?
The GI50 was 1580 nM.

What about the CC50 (OVCAR-4; Homo sapiens, OVCAR-4, 48 h, read-out: Log10 LC50 (converted)) of the same compound?
The CC50 was > 100 µM.

And the “Log10 TGI” value (OVCAR-4; OVCAR-4 (Ovarian), PG=0, 48 hour incubation)?
Its value is −4.21 molar.

What about the GI50 (OVCAR-6; 48 h, read-out: Log10 GI50 (converted)) of the same compound?
The GI50 was < 10 nM.

And the CC50 (OVCAR-6; 48 h, read-out: Log10 LC50 (converted))?
Its CC50 is 85.1 µM.

What about the “Log10 TGI” value (OVCAR-6; OVCAR-6 (Ovarian), PG=0, 48 hour incubation) of the same compound?
The value was −4.88 molar.

And the GI50 (UACC-62; Homo sapiens, UACC-62, 48 h, read-out: Log10 GI50 (converted))?
The GI50 was < 10 nM.

And the CC50 (UACC-62; Homo sapiens, UACC-62, 48 h, read-out: Log10 LC50 (converted))?
The CC50 was > 100 µM.

And the “Log10 TGI” value (UACC-62; UACC-62 (Melanoma), PG=0, 48 hour incubation)?
Its value is −4.78 molar.

What about the GI50 (SF-539; Homo sapiens, SF-539, 48 h, read-out: Log10 GI50 (converted)) of the same compound?
The GI50 was < 10 nM.

What about the CC50 (SF-539; Homo sapiens, SF-539, 48 h, read-out: Log10 LC50 (converted)) of the same compound?
Its CC50 is 1510 nM.

What about the “Log10 TGI” value (SF-539; SF-539 (CNS Cancer), PG=0, 48 hour incubation) of the same compound?
The value was −7.32 molar.

What about the GI50 (U251; Homo sapiens, U-251, 48 h, read-out: Log10 GI50 (converted)) of the same compound?
Its GI50 is < 10 nM.

What about the CC50 (U251; Homo sapiens, U-251, 48 h, read-out: Log10 LC50 (converted)) of the same compound?
The CC50 was 32.4 µM.

What about the “Log10 TGI” value (U251; U251 (CNS Cancer), PG=0, 48 hour incubation) of the same compound?
The value was −4.98 molar.

What about the “Log10 TGI” value (COLO 205; COLO 205 (Colon Cancer), PG=0, 48 hour incubation) of the same compound?
The value was −7.38 molar.

And the GI50 (COLO 205; Homo sapiens, COLO 205, 48 h, read-out: Log10 GI50 (converted))?
The GI50 was < 10 nM.

And the CC50 (COLO 205; Homo sapiens, COLO 205, 48 h, read-out: Log10 LC50 (converted))?
The CC50 was 26.3 µM.

And the “Log10 TGI” value (786-0; 786-0 (Renal Cancer), PG=0, 48 hour incubation)?
The value was −4.88 molar.

What about the GI50 (786-0; Homo sapiens, 786-0, 48 h, read-out: Log10 GI50 (converted)) of the same compound?
Its GI50 is < 10 nM.

And the CC50 (786-0; Homo sapiens, 786-0, 48 h, read-out: Log10 LC50 (converted))?
The CC50 was 36.3 µM.

And the “Log10 TGI” value (A498; A498 (Renal Cancer), PG=0, 48 hour incubation)?
Its value is −7.29 molar.

And the GI50 (A498; Homo sapiens, A498, 48 h, read-out: Log10 GI50 (converted))?
The GI50 was < 10 nM.

What about the CC50 (A498; Homo sapiens, A498, 48 h, read-out: Log10 LC50 (converted)) of the same compound?
The CC50 was > 100 µM.

And the GI50 (SN12C; Homo sapiens, SN12C, 48 h, read-out: Log10 GI50 (converted))?
The GI50 was < 10 nM.

And the CC50 (SN12C; Homo sapiens, SN12C, 48 h, read-out: Log10 LC50 (converted))?
The CC50 was > 100 µM.

And the “Log10 TGI” value (SN12C; SN12C (Renal Cancer), PG=0, 48 hour incubation)?
Its value is >−4.00 molar.

And the GI50 (UO-31; Homo sapiens, UO-31, 48 h, read-out: Log10 GI50 (converted))?
Its GI50 is 64.6 nM.

What about the CC50 (UO-31; Homo sapiens, UO-31, 48 h, read-out: Log10 LC50 (converted)) of the same compound?
Its CC50 is > 100 µM.

What about the “Log10 TGI” value (UO-31; UO-31 (Renal Cancer), PG=0, 48 hour incubation) of the same compound?
Its value is >−4.00 molar.

And the GI50 (MDA-MB-231/ATCC; Homo sapiens, MDA-MB-231, 48 h, read-out: Log10 GI50 (converted))?
The GI50 was 28.2 nM.

What about the CC50 (MDA-MB-231/ATCC; Homo sapiens, MDA-MB-231, 48 h, read-out: Log10 LC50 (converted)) of the same compound?
Its CC50 is 23.4 µM.

And the “Log10 TGI” value (MDA-MB-231/ATCC; MDA-MB-231/ATCC (Breast Cancer), PG=0, 48 hour incubation)?
The value was −6.13 molar.

What about the GI50 (PC-3; Homo sapiens, PC-3, 48 h, read-out: Log10 GI50 (converted)) of the same compound?
Its GI50 is < 10 nM.

And the CC50 (PC-3; Homo sapiens, PC-3, 48 h, read-out: Log10 LC50 (converted))?
Its CC50 is > 100 µM.

And the “Log10 TGI” value (PC-3; PC-3 (Prostate Cancer), PG=0, 48 hour incubation)?
The value was −5.48 molar.

And the “Log10 TGI” value (DU-145; DU-145 (Prostate Cancer), PG=0, 48 hour incubation)?
Its value is −7.00 molar.

What about the GI50 (DU-145; Homo sapiens, DU-145, 48 h, read-out: Log10 GI50 (converted)) of the same compound?
Its GI50 is < 10 nM.

What about the CC50 (DU-145; Homo sapiens, DU-145, 48 h, read-out: Log10 LC50 (converted)) of the same compound?
The CC50 was 37.2 µM.

What about the “Log10 TGI” value (HOP-62; HOP-62 (Non-Small Cell Lung Cancer), PG=0, 48 hour incubation) of the same compound?
The value was −6.52 molar.

And the GI50 (HOP-62; Homo sapiens, HOP-62, 48 h, read-out: Log10 GI50 (converted))?
The GI50 was 14.1 nM.

And the CC50 (HOP-62; Homo sapiens, HOP-62, 48 h, read-out: Log10 LC50 (converted))?
The CC50 was 89.1 µM.

What about the GI50 (NCI-H226; Homo sapiens, NCI-H226, 48 h, read-out: Log10 GI50 (converted)) of the same compound?
Its GI50 is < 10 nM.

What about the CC50 (NCI-H226; Homo sapiens, NCI-H226, 48 h, read-out: Log10 LC50 (converted)) of the same compound?
The CC50 was > 100 µM.

And the “Log10 TGI” value (NCI-H226; NCI-H226 (Non-Small Cell Lung Cancer), PG=0, 48 hour incubation)?
The value was −4.76 molar.

What about the GI50 (NCI-H460; Homo sapiens, NCI-H460, 48 h, read-out: Log10 GI50 (converted)) of the same compound?
The GI50 was < 10 nM.

And the CC50 (NCI-H460; Homo sapiens, NCI-H460, 48 h, read-out: Log10 LC50 (converted))?
The CC50 was > 100 µM.

What about the “Log10 TGI” value (NCI-H460; NCI-H460 (Non-Small Cell Lung Cancer), PG=0, 48 hour incubation) of the same compound?
The value was −4.75 molar.

And the GI50 (NCI-H522; Homo sapiens, NCI-H522, 48 h, read-out: Log10 GI50 (converted))?
The GI50 was < 10 nM.

And the CC50 (NCI-H522; Homo sapiens, NCI-H522, 48 h, read-out: Log10 LC50 (converted))?
Its CC50 is > 100 µM.

What about the “Log10 TGI” value (NCI-H522; NCI-H522 (Non-Small Cell Lung Cancer), PG=0, 48 hour incubation) of the same compound?
Its value is −5.91 molar.

What about the “potency compared with paclitaxel” value ([1]; cancer cell line panel, Table I) of the same compound?
Its value is “in most instances is as potent and in some instances more potent than paclitaxel”.

What about the “Log10 GI50, MG_MID” value [1, 2] of the same compound?
The value was −7.79 molar.

What about the “Log10 LC50, MG_MID” value [1, 2] of the same compound?
The value was −4.32 molar.

And the “Log10 TGI, MG_MID” value [1, 2]?
Its value is −5.59 molar.
